Assay results from patent publication US6093744A, “N-acyl sulfamic acid esters useful as hypocholesterolemic agents” (Warner-Lambert Company, priority 1998, dated 2000).
Counter-ions that a name gives are not always drawn.

Key:
[1] = biological target: T1, acyl-CoA: cholesterol acyltransferase (ACAT) (Rattus norvegicus, UniProt Q7TQM4); experiment: In vitro inhibition of acylation of cholesterol by oleic acid (LAI), rat liver microsomes; format: biochemical; details: radiolabeled oleic acid
T1 construct: tissue preparation containing rat liver microsomes; from tissue; host or cells: rat liver microsomes
T1 sequence (Q7TQM4 1-524): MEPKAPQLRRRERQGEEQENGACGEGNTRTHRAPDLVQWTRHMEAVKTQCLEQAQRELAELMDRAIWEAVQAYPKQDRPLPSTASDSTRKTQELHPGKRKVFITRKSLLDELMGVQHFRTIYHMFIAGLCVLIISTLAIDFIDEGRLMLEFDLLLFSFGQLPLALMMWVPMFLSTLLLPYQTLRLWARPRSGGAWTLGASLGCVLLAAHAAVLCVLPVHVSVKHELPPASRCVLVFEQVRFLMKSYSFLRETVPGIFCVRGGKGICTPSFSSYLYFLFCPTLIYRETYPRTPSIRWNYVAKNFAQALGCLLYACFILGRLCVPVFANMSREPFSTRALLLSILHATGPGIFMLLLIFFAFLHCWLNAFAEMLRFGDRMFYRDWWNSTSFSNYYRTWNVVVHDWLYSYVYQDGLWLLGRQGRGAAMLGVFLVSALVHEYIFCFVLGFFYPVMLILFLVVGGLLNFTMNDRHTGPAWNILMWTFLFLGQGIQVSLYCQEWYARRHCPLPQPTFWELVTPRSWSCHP
Description: The ability of representative compounds of the present invention to inhibit ACAT was measured using an in vitro test more fully described in Field F J, Salone R G, Biochemica et Biophysica 1982; 712:557-570. The test assesses the ability of a test compound to inhibit the acylation of cholesterol by oleic acid by measuring the amount of radiolabeled cholesterol oleate formed from radiolabeled oleic acid in a tissue preparation containing rat liver microsomes.

[2] = test system: Plasma TC; experiment: in vivo screen designated APCC (high fat, high cholesterol diet, plasma cholesterol); parameters: species or system male Sprague-Dawley rats; details: dose 10 mg/kg, rats, PCC diet with 0.5% cholic acid overnight, vehicle CMC/Tween; for change in vivo at 10 mg/kg: Rattus norvegicus
Excerpt: In one in vivo screen designated APCC, male Sprague-Dawley rats (200 to 225 g) were randomly divided into treatment groups and dosed at 4 PM with either vehicle (CMC/Tween) or suspensions of compounds in vehicle. The normal chow diet was then replaced with a high fat, high cholesterol diet (designated PCC) containing 0.5% cholic acid. The rats consumed this diet ad libitum during the night and were sacrificed at 8 AM to obtain blood samples for cholesterol analysis using standard procedures. Statistical differences between mean cholesterol values for the same vehicle were determined using analysis of variance followed by Fisher's least significant test.

SMILES | IC50 [1] [µM] | change in vivo at 10 mg/kg [2] [%] | APCC % Change in Plasma TC [2] [%]
CC(C)c1cc(C(C)C)c(CC(=O)NS(=O)(=O)Oc2c(C(C)C)cc(CNC(=O)CN)cc2C(C)C)c(C(C)C)c1 [Example 19, [(2,4,6-Triisopropyl-phenyl)-acetyl]-sulfamic acid 4-[(2-amino-acetylamino)-methyl]-2,6-diisopropyl-phenyl ester] | > 50 | -16 | 
CC(C)c1cc(C(C)C)c(CC(=O)NS(=O)(=O)Oc2c(C(C)C)cc(CN3CCN(C)CC3)cc2C(C)C)c(C(C)C)c1 [Example 23, [(2,4,6-Triisopropyl-phenyl)-acetyl]-sulfamic acid 2,6-diisopropyl-4-(4-methyl-piperazin-1-ylmethyl)-phenyl ester, dihydrochloride] | 50 | 5 | 
CC(C)c1cc(C(C)C)c(CC(=O)NS(=O)(=O)Oc2c(C(C)C)cc(OCCCN(C)C)cc2C(C)C)c(C(C)C)c1 [Example 14, [(2,4,6-Triisopropyl-phenyl)-acetyl]-sulfamic acid 4-(3-dimethylamino-propoxy)-2,6-diisopropyl-phenyl ester] | > 50 |  | -11
CC(C)c1cc(C(C)C)c(CC(=O)NS(=O)(=O)Oc2c(C(C)C)cc(NC(=O)CCCCN)cc2C(C)C)c(C(C)C)c1 [Example 10, [(2,4,6-Triisopropyl-phenyl)-acetyl]-sulfamic acid 4-(5-amino-pentanoylamino)-2,6-diisopropyl-phenyl ester trifluoroacetate(1:1) (salt)] |  | -15 | 
CC(C)c1cc(C(C)C)c(CC(=O)NS(=O)(=O)Oc2c(C(C)C)cc(C(N)=O)cc2C(C)C)c(C(C)C)c1 [Example 24, [(2,4,6-Triisopropyl-phenyl)-acetyl]-sulfamic acid 4-carbamoyl-2,6-diisopropyl-phenyl ester] | 43.8 | -5 | 
CC(C)c1cc(C(C)C)c(CC(=O)NS(=O)(=O)Oc2c(C(C)C)cc(C#N)cc2C(C)C)c(C(C)C)c1 [Example 18, [(2,4,6-Triisopropyl-phenyl)-acetyl]-sulfamic acid 4-cyano-2,6-diisopropyl-phenyl ester] | > 50 | -38 | 
CC(C)c1cc(C(C)C)c(CC(=O)NS(=O)(=O)Oc2c(C(C)C)cc(N(CCO)CCO)cc2C(C)C)c(C(C)C)c1 [Example 28, [(2,4,6-Triisopropyl-phenyl)-acetyl]-sulfamic acid 4-[bis-(2-hydroxy-ethyl)-amino]-2,6-diisopropyl-phenyl ester] | 43.8 | -48 | 
CC(C)c1cc(C(C)C)c(CC(=O)NS(=O)(=O)Oc2c(C(C)C)cc(C=CC#N)cc2C(C)C)c(C(C)C)c1 [Example 21, [(2,4,6-Triisopropyl-phenyl)-acetyl]-sulfamic acid 4-(2-cyano-vinyl)-2,6-diisopropyl-phenyl ester] | 44.6 | -35 | 
CC(C)c1cc(C(C)C)c(CC(=O)NS(=O)(=O)Oc2c(C(C)C)cc(SC#N)cc2C(C)C)c(C(C)C)c1 [Example 17, [(2,4,6-Triisopropyl-phenyl)-acetyl]-sulfamic acid 2,6-diisopropyl-4-thiocyanato-phenyl ester] | 29 | -46 | 
CC(C)c1cc(C(C)C)c(CC(=O)NS(=O)(=O)Oc2c(C(C)C)cc(NC(=O)CN)cc2C(C)C)c(C(C)C)c1 [Example 4, [(2,4,6-Triisopropyl-phenyl)-acetyl]-sulfamic acid 4-(2-amino-acetylamino)-2,6-diisopropyl-phenyl ester] | 48 | -65 | 
CC(C)c1cc(C(C)C)c(CC(=O)NS(=O)(=O)Oc2c(C(C)C)cc(NC(=O)[C@@H](N)CCCCN)cc2C(C)C)c(C(C)C)c1 [Example 2, (S)-[(2,4,6-Triisopropyl-phenyl)-acetyl]-sulfamic acid 4-(2,6-diamino-hexanoylamino)-2,6-diisopropyl-phenyl ester dihydrochloride] | > 50 | -60 | 
CC(C)c1cc(C(C)C)c(CC(=O)NS(=O)(=O)Oc2c(C(C)C)cc(OCCCN(C)C)cc2C(C)C)c(C(C)C)c1.Cl [Example 15, [(2,4,6-Triisopropyl-phenyl)-acetyl]-sulfamic acid 4-(3-dimethylamino-propoxy)-2,6-diisopropyl-phenyl ester hydrochloride salt] |  |  | -26
CC(C)c1cc(C(C)C)c(CC(=O)NS(=O)(=O)Oc2c(C(C)C)cc(NC(=O)[C@H](C)N)cc2C(C)C)c(C(C)C)c1 [Example 12, (L)-[(2,4,6-Triisopropyl-phenyl)-acetyl]-sulfamic acid 4-(2-amino-propionylamino)-2,6-diisopropyl-phenyl ester] | > 50 | -74 | 
CSCCC(N)C(=O)Nc1cc(C(C)C)c(OS(=O)(=O)NC(=O)Cc2c(C(C)C)cc(C(C)C)cc2C(C)C)c(C(C)C)c1 (stereo not shown) [Example 6, [(2,4,6-Triisopropyl-phenyl)-acetyl]-sulfamic acid 4-(2-amino-4-methylsulfanyl-butyrylamino)-2,6-diisopropyl-phenyl ester trifluoroacetate] | 750 | -72 | 
CC(C)c1cc(C(C)C)c(CC(=O)NS(=O)(=O)Oc2c(C(C)C)cc(CCCCCC(=O)O)cc2C(C)C)c(C(C)C)c1 [Example 37] | > 50 | -47 | 

Further lines, with some results ahead:

IC50 [1] [µM] | SMILES | change in vivo at 10 mg/kg [2] [%] | APCC % Change in Plasma TC [2] [%]
30 | CC(=O)Nc1cc(C(C)C)c(OS(=O)(=O)NC(=O)Cc2c(C(C)C)cc(C(C)C)cc2C(C)C)c(C(C)C)c1 [Example 26] | -44 | 
10.6 | CC(C)c1cc(C(C)C)c(CC(=O)NS(=O)(=O)Oc2c(C(C)C)cc(NS(=O)(=O)c3cccc4c(N(C)C)cccc34)cc2C(C)C)c(C(C)C)c1 [Example 33, [(2,4,6-Triisopropyl-phenyl)-acetyl]-sulfamic acid 4-(5 dimethylamino-naphthalene-1-sulfonylamino)-2,6-diisopropyl-phenyl ester] | -61 | 
24 | CC(C)c1cc(C(C)C)c(CC(=O)NS(=O)(=O)Oc2c(C(C)C)cc(NC(=O)C(N)Cc3c[nH]c4ccccc34)cc2C(C)C)c(C(C)C)c1 (stereo not shown) [Example 9] | -25 | 
20.3 | CC(C)c1cc(C(C)C)c(CC(=O)NS(=O)(=O)Oc2c(C(C)C)cc(NC(=O)Nc3ccccc3)cc2C(C)C)c(C(C)C)c1 [Example 30] | -30 | 
31.1 | CC(C)c1cc(C(C)C)c(CC(=O)NS(=O)(=O)Oc2c(C(C)C)cc(NS(=O)(=O)c3cccs3)cc2C(C)C)c(C(C)C)c1 [Example 32, [(2,4,6-Triisopropyl-phenyl)-acetyl]-sulfamic acid 2,6-diisopropyl-4-(thiophene-2-sulfonyamino)-phenyl ester] | -60 | 
37.4 | CC(C)c1cc(C(C)C)c(CC(=O)NS(=O)(=O)Oc2c(C(C)C)cc(NC(=S)Nc3ccccc3)cc2C(C)C)c(C(C)C)c1 [Example 31] | -21 | 
22.8 | CC(C)c1cc(C(C)C)c(CC(=O)NS(=O)(=O)Oc2c(C(C)C)cc(CNCc3ccccc3)cc2C(C)C)c(C(C)C)c1 [Example 22, [(2,4,6-Triisopropyl-phenyl)-acetyl]-sulfamic acid 4-(benzylamino-methyl)-2,6-diisopropyl-phenyl ester mono hydrochloride] | -18 | 
33 | CC(C)c1cc(C(C)C)c(CC(=O)NS(=O)(=O)Oc2c(C(C)C)cc(NC(=O)Nc3c(C(C)C)cccc3C(C)C)cc2C(C)C)c(C(C)C)c1 [Example 29] | -3 | 
50 | CC(C)c1cc(C(C)C)c(CC(=O)NS(=O)(=O)Oc2c(C(C)C)cc(S(N)(=O)=O)cc2C(C)C)c(C(C)C)c1 [Example 35, [(2,4,6-Triisopropyl-phenyl)-acetyl]-sulfamic acid 2,6-diisopropyl-4-sulfamoyl-phenyl ester] |  | 
43 | CC(C)c1cc(C(C)C)c(CC(=O)NS(=O)(=O)Oc2c(C(C)C)cc(NCCO)cc2C(C)C)c(C(C)C)c1 [Example 27, [(2,4,6-Triisopropyl-phenyl)-acetyl]-sulfamic acid 4-(2-hydroxy-ethylamino)-2,6-diisopropyl-phenyl ester] |  | 
